Earlier results as cited in article PMC11767451, “Novel Approaches to Monitor Pharmacokinetics and Metabolism of Gemcitabine-Ibandronate Conjugate in Mice and Dogs” (Molecules, 2025).

Tested on: bone-associated cancer cells
Design: method as in PMID 30413669
Conditions: cited from earlier work

For `CC(O)(P(=O)(O)O)P(=O)(O)OP(=O)(O)OC[C@H]1O[C@@H](n2ccc(N)nc2=O)[C@@H](O)[C@@H]1O` (stereo partly drawn) [MBC-11], the “bone localized effects compared to free cytarabine” value (clinical trials) is listed as 2–20 fold, the “metabolic activity of bone-associated cancer cells” value (in humans) is listed as “significant reductions” and the tolerability (in humans) is listed as “well tolerated”.
